Data reported in patent publication US7322965B2, “Infection-resistant medical devices” (priority 2002, dated 2008).
In brackets after ≈: the same amount, converted by molar mass. Where two headings read alike, the source gives them in different places. Marks after values point to notes of the source that are not given here.

What was measured:
Format in all cases: cell-based
S. epidermidis UC-20207 [1] = assay: Determination of minimum inhibitory concentration (microdilution); conditions: Staphylococcus epidermidis, read-out: MIC (minimum inhibitory concentration)
S. epidermidis UC-20208 [2] = assay: as above; conditions: Staphylococcus epidermidis, read-out: MIC (minimum inhibitory concentration)
S. epidermidis RP62A [3] = assay: as above; conditions: Staphylococcus epidermidis, 18 h, read-out: MIC (minimum inhibitory concentration)
S. hominis SP-2 = assay: as above; conditions: Staphylococcus hominis, read-out: MIC (minimum inhibitory concentration)
S. aureus UC-20205 = assay: Microtiter-plate adherence assay on polystyrene; conditions: for Adherence Mean OD550: S. aureus UC-20205, 18 h
Experimental: (§1) Briefly, the inoculum was established by the direct colony suspension method using the Prompt™ Inoculation System (Becton Dickinson, Sparks, Md.). The bacteria suspension, which was equal to the turbidity of a 0.5 McFarland standard, was diluted in TSB to a concentration of 1×10^6 colony forming units per ml (CFU/mL). One hundred microliters of the cell suspension was added to flat-bottom polystyrene wells (Corning Costar, Corning, N.Y.) containing 100 μl of TSB, with and without drug. The final inoculum concentration per well was approximately 5×10^5 CFU/mL. The plates were incubated at 37° C. under static conditions in air. At 18 hours (h) post-infection, the optical density of bacterial growth was measured at a wavelength of 595 nm in a microtiter plate reader (Vmax; Molecular Devices, Sunnyvale, Calif.). […] Adherent “sessile” cells then were fixed with 3.7% (v/v) formaldehyde/2% (w/v) sodium acetate and stained with 0.1% (w/v) crystal violet. Excess stain was rinsed off with deionized water and the plates were air-dried for 4 h. The optical density of bacterial adherence was determined at a wavelength of 550 nm. Preliminary studies were performed to determine the optimal wavelengths for measuring growth turbidity and stained adherent cells (data not shown). To compensate for background absorbance, optical density readings from wells treated with sterile medium, fixative and stain as described above were averaged and then subtracted from all test and control wells. Relative inhibition of adherence or growth was expressed by the following equation: (OD of control well−OD of treated well/OD of control well)×100, where OD is the mean optical density of six replicate wells from two separate experiments (three replicates per experiment). Control was defined as infected, drug-free cultures.
(§2) The primary efficacy variable in this study was the measurement of adherent bacterial cells to polystyrene after 18 h of growth. To determine whether statistically significant differences existed between treatment groups (MIC, ½ MIC, and ¼ MIC) compared with the infected-nontreated controls, the Kruskal-Wallis one-way analysis of variance (ANOVA) was applied for each clinical strain. Statistical significance was defined as p-values ≦0.05. An asterisk (*) was placed by all test values less than or equal to the specified significance level.

S. aureus UC-20206 = assay: Microtiter-plate adherence assay on polystyrene; conditions: for Adherence Mean OD550: S. aureus UC-20206, 18 h
Experimental: as §1, §2

S. epidermidis UC-20208 [4] = assay: Microtiter-plate adherence assay on polystyrene; conditions: for Adherence Mean OD550: S. epidermidis UC-20208, 18 h; for inhibition at 0.5 µg/mL / inhibition at 1 µg/mL / inhibition at 2 µg/mL: Staphylococcus epidermidis, UC20208, 18 h, read-out: Adherence % Inhibition
Experimental: as §1, §2

S. epidermidis RP62A [5] = assay: Microtiter-plate adherence assay on polystyrene; conditions: 18 h; for Adherence Mean OD550: S. epidermidis RP62A; for inhibition at 0.5 µg/mL / inhibition at 1 µg/mL / inhibition at 2 µg/mL: Staphylococcus epidermidis, RP62A, read-out: Adherence % Inhibition
Experimental: (§3) Briefly, the inoculum was established by the direct colony suspension method using the Prompt™ Inoculation System (Becton Dickinson, Sparks, Md.). The bacteria suspension, which was equal to the turbidity of a 0.5 McFarland standard, was diluted in TSB to a concentration of 1×10^6 colony forming units per ml (CFU/mL). One hundred microliters of the cell suspension was added to flat-bottom polystyrene wells (Corning Costar, Corning, N.Y.) containing 100 μl of TSB, with and without drug. The final inoculum concentration per well was approximately 5×10^5 CFU/mL. The plates were incubated at 37° C. under static conditions in air. At 18 hours (h) post-infection, the optical density of bacterial growth was measured at a wavelength of 595 nm in a microtiter plate reader (Vmax; Molecular Devices, Sunnyvale, Calif.). […] Adherent “sessile” cells then were fixed with 3.7% (v/v) formaldehyde/2% (w/v) sodium acetate and stained with 0.1% (w/v) crystal violet. Excess stain was rinsed off with deionized water and the plates were air-dried for 4 h. The optical density of bacterial adherence was determined at a wavelength of 550 nm. […] To compensate for background absorbance, optical density readings from wells treated with sterile medium, fixative and stain as described above were averaged and then subtracted from all test and control wells. Relative inhibition of adherence or growth was expressed by the following equation: (OD of control well−OD of treated well/OD of control well)×100, where OD is the mean optical density of six replicate wells from two separate experiments (three replicates per experiment). Control was defined as infected, drug-free cultures.
as §2

S. epidermidis UC-20207 [6] = assay: Microtiter-plate adherence assay on polystyrene; conditions: for Adherence Mean OD550: S. epidermidis UC-20207, 18 h; for inhibition at 0.5 µg/mL / inhibition at 1 µg/mL / inhibition at 2 µg/mL: Staphylococcus epidermidis, UC20207, 18 h, read-out: Adherence % Inhibition
Experimental: as §3, §2

[7] = Staphylococcus aureus, UC20205, 18 h, read-out: Adherence % Inhibition
[8] = Staphylococcus aureus, UC20206, 18 h, read-out: Adherence % Inhibition

Structure (SMILES)	Adherence Mean OD550 (S. aureus UC-20205; drug 0.5 μg/ml)	Adherence Mean OD550 (S. aureus UC-20205; drug 1.0 μg/ml)	inhibition at 0.5 µg/mL (S. aureus UC-20205; [7]) [%]	inhibition at 1 µg/mL (S. aureus UC-20205; [7]) [%]	Adherence Mean OD550 (S. aureus UC-20206; drug 1.0 μg/ml)	inhibition at 1 µg/mL (S. aureus UC-20206; [8]) [%]	Adherence Mean OD550 (S. epidermidis UC-20208 [4]; drug 0.5 μg/ml)	Adherence Mean OD550 (S. epidermidis UC-20208 [4]; drug 1.0 μg/ml)	Adherence Mean OD550 (S. epidermidis UC-20208 [4]; drug 2.0 μg/ml (MIC))	inhibition at 0.5 µg/mL (S. epidermidis UC-20208 [4]) [%]	inhibition at 1 µg/mL (S. epidermidis UC-20208 [4]) [%]	inhibition at 2 µg/mL (S. epidermidis UC-20208 [4]) [%]	Adherence Mean OD550 (S. epidermidis RP62A [5]; drug 1.0 μg/ml)	Adherence Mean OD550 (S. epidermidis RP62A [5]; drug 2.0 μg/ml (MIC))	inhibition at 0.5 µg/mL (S. epidermidis RP62A [5]) [%]	inhibition at 1 µg/mL (S. epidermidis RP62A [5]) [%]	inhibition at 2 µg/mL (S. epidermidis RP62A [5]) [%]	Adherence Mean OD550 (S. epidermidis UC-20207 [6]; drug 0.5 μg/ml)	Adherence Mean OD550 (S. epidermidis UC-20207 [6]; drug 2.0 μg/ml (MIC))	inhibition at 0.5 µg/mL (S. epidermidis UC-20207 [6]) [%]	other results
CC(=O)NC[C@H]1CN(c2ccc(N3CCOCC3)c(F)c2)C(=O)O1 [Linezolid, (S)-N-[[3-[3-fluoro-4-(4-morpholinyl)phenyl]-2-oxo-5-oxazolidinyl]methyl]acetamide]	0.013 ± 0.007*	0.005 ± 0.007*	97.6	99	0.001 ± 0.002*	99.4	1.342 ± 0.791	0.001 ± 0.002*	0.000 ± 0.001*	26.7	99.9	100	0.002 ± 0.002*	0.001 ± 0.001*	95.5	99.9	100	0.513 ± 0.227*	0.010 ± 0.005*	76.9	MIC (S. epidermidis UC-20207 [1]; UC20207, S. epidermidis UC-20207, 18 h): 2 µg/mL (≈ 5.93 µM); MIC (S. epidermidis UC-20208 [2]; UC20208, S. epidermidis UC-20208, 18 h): 2 µg/mL (≈ 5.93 µM); MIC (S. epidermidis RP62A [3]; S. epidermidis RP62A): 2 µg/mL (≈ 5.93 µM); MIC (S. hominis SP-2; SP2, S. hominis SP-2, 18 h): 2 µg/mL (≈ 5.93 µM); Adherence Mean OD550 (S. aureus UC-20205; drug 2.0 μg/ml): 0.001 ± 0.001*; inhibition at 2 µg/mL (S. aureus UC-20205; [7]): 99.7%; Adherence Mean OD550 (S. aureus UC-20206; drug 2.0 μg/ml): 0.002 ± 0.002*; Adherence Mean OD550 (S. aureus UC-20206; drug 4.0 μg/ml): 0.003 ± 0.003*; inhibition at 2 µg/mL (S. aureus UC-20206; [8]): 99.3%; inhibition at 4 µg/mL (S. aureus UC-20206; [8]): 98.5%; Adherence Mean OD550 (S. epidermidis RP62A [5]; drug 0.5 μg/ml): 0.125 ± 0.133*; Adherence Mean OD550 (S. epidermidis UC-20207 [6]; drug 1.0 μg/ml): 0.007 ± 0.002*; inhibition at 1 µg/mL (S. epidermidis UC-20207 [6]): 99.7%; inhibition at 2 µg/mL (S. epidermidis UC-20207 [6]): 99.5%
CN[C@H](CC(C)C)C(=O)N[C@H]1C(=O)N[C@@H](CC(N)=O)C(=O)N[C@H]2C(=O)N[C@H]3C(=O)N[C@H](C(=O)N[C@H](C(=O)O)c4cc(O)cc(O)c4-c4cc3ccc4O)[C@H](O)c3ccc(c(Cl)c3)Oc3cc2cc(c3O[C@@H]2O[C@H](CO)[C@@H](O)[C@H](O)[C@H]2O[C@H]2C[C@](C)(N)[C@H](O)[C@H](C)O2)Oc2ccc(cc2Cl)[C@H]1O [Vancomycin]	0.012 ± 0.013*	0.000 ± 0.001*	98	100	0.000 ± 0.003*	9.99	2.165 ± 0.150	2.716 ± 0.400	0.000 ± 0.001*	0	0	100	1.728 ± 0.952	0.000 ± 0.002*	0	36.6	100	2.177 ± 0.424	0.001 ± 0.002*	0	MIC (S. epidermidis UC-20207 [1]; UC20207, 18 h): 2 µg/mL (≈ 1.38 µM); MIC (S. epidermidis UC-20208 [2]; UC20208, 18 h): 2 µg/mL (≈ 1.38 µM); MIC (S. epidermidis RP62A [3]; RP62A): 2 µg/mL (≈ 1.38 µM); MIC (S. hominis SP-2; SP2, 18 h): 1 µg/mL (≈ 0.69 µM); Adherence Mean OD550 (S. aureus UC-20205; drug 0.25 μg/ml): 0.730 ± 0.202; inhibition at 0.25 µg/mL (S. aureus UC-20205; [7]): 0%; Adherence Mean OD550 (S. aureus UC-20206; drug 0.25 μg/ml): 0.192 ± 0.020; Adherence Mean OD550 (S. aureus UC-20206; drug 0.5 μg/ml): 0.267 ± 0.044; inhibition at 0.25 µg/mL (S. aureus UC-20206; [8]): 12.5%; inhibition at 0.5 µg/mL (S. aureus UC-20206; [8]): 0%; inhibition at 1 µg/mL (S. epidermidis UC-20207 [6]): 0%; inhibition at 2 µg/mL (S. epidermidis UC-20207 [6]): 100%
